Legend:
Assay in all cases: relative viability (nuclei count vs DMSO), 5 days (fraction); higher = more cells survive
CAL-12T = test system: CAL-12T
Summary of the method: (§1)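 Lung cancer cell lines in 1536-well plates got either a single drug or a fixed anchor-drug dose together with five library-drug doses (not always all listed) in √10 steps, by pin tool, on the day after seeding. Nuclei were counted after 5 days, and relative viability is the treated-to-vehicle ratio of nuclei counts. Values are medians of duplicate plates.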

NCI-H1734 = test system: NCI-H1734
Summary of the method: as §1

H3255 = test system: H3255
Summary of the method: as §1

NCI-H1563 = test system: NCI-H1563
Summary of the method: as §1

NCI-H1355 = test system: NCI-H1355
Summary of the method: as §1

NCI-H1975 = test system: NCI-H1975
Summary of the method: as §1

PC-3 [JPC-3] = test system: PC-3 [JPC-3]
Summary of the method: as §1

NCI-H322M = test system: NCI-H322M
Summary of the method: as §1

EKVX = test system: EKVX
Summary of the method: as §1

HCC-827 = test system: HCC-827
Summary of the method: as §1

HCC-15 = test system: HCC-15
Summary of the method: as §1

NCI-H1650 = test system: NCI-H1650
Summary of the method: as §1

NCI-H2228 = test system: NCI-H2228
Summary of the method: as §1

NCI-H661 = test system: NCI-H661
Summary of the method: as §1

NCI-H2342 = test system: NCI-H2342
Summary of the method: as §1

LCLC-97TM1 = test system: LCLC-97TM1
Summary of the method: as §1

LK-2 = test system: LK-2
Summary of the method: as §1

RERF-LC-KJ = test system: RERF-LC-KJ
Summary of the method: as §1

NCI-H1755 = test system: NCI-H1755
Summary of the method: as §1

NCI-H520 = test system: NCI-H520
Summary of the method: as §1

NCI-H2405 = test system: NCI-H2405
Summary of the method: as §1

PC-14 = test system: PC-14
Summary of the method: as §1

## CCN(CC)CCCCNc1ncc2cc(-c3cc(OC)cc(OC)c3)c(NC(=O)NC(C)(C)C)nc2n1 + COc1cccc2cc(-c3nc([C@H]4CC[C@H](C(=O)O)CC4)n4ncnc(N)c34)[nH]c12 [OSI-027] (partner 0.5 µM)
CAL-12T; first compound 0.01 µM
  relative viability: 0.623
CAL-12T; first compound 0.03162 µM
  relative viability: 0.736
CAL-12T; first compound 0.1 µM
  relative viability: 0.789
CAL-12T; first compound 0.3162 µM
  relative viability: 0.836
CAL-12T; first compound 1 µM
  relative viability: 0.576
NCI-H1734; first compound 0.01 µM
  relative viability: 0.647
NCI-H1734; first compound 0.03162 µM
  relative viability: 0.61
NCI-H1734; first compound 0.1 µM
  relative viability: 0.634
NCI-H1734; first compound 0.3162 µM
  relative viability: 0.666
NCI-H1734; first compound 1 µM
  relative viability: 0.526
H3255; first compound 0.01 µM
  relative viability: 0.524
H3255; first compound 0.03162 µM
  relative viability: 0.547
H3255; first compound 0.1 µM
  relative viability: 0.698
H3255; first compound 0.3162 µM
  relative viability: 0.448
H3255; first compound 1 µM
  relative viability: 0.538
NCI-H1563; first compound 0.01 µM
  relative viability: 0.766
NCI-H1563; first compound 0.03162 µM
  relative viability: 0.723
NCI-H1563; first compound 0.1 µM
  relative viability: 0.835
NCI-H1563; first compound 0.3162 µM
  relative viability: 0.768
NCI-H1563; first compound 1 µM
  relative viability: 0.584
NCI-H1355; first compound 0.01 µM
  relative viability: 0.405
NCI-H1355; first compound 0.03162 µM
  relative viability: 0.404
NCI-H1355; first compound 0.1 µM
  relative viability: 0.417
NCI-H1355; first compound 0.3162 µM
  relative viability: 0.45
NCI-H1355; first compound 1 µM
  relative viability: 0.367
NCI-H1975; first compound 0.01 µM
  relative viability: 0.86
NCI-H1975; first compound 0.03162 µM
  relative viability: 0.822
NCI-H1975; first compound 0.1 µM
  relative viability: 0.802
NCI-H1975; first compound 0.3162 µM
  relative viability: 0.949
NCI-H1975; first compound 1 µM
  relative viability: 0.559
PC-3 [JPC-3]; first compound 0.01 µM
  relative viability: 0.753
PC-3 [JPC-3]; first compound 0.03162 µM
  relative viability: 0.796
PC-3 [JPC-3]; first compound 0.1 µM
  relative viability: 0.782
PC-3 [JPC-3]; first compound 0.3162 µM
  relative viability: 1.02
PC-3 [JPC-3]; first compound 1 µM
  relative viability: 0.585
NCI-H322M; first compound 0.01 µM
  relative viability: 0.481
NCI-H322M; first compound 0.03162 µM
  relative viability: 0.525
NCI-H322M; first compound 0.1 µM
  relative viability: 0.531
NCI-H322M; first compound 0.3162 µM
  relative viability: 0.594
NCI-H322M; first compound 1 µM
  relative viability: 0.552
EKVX; first compound 0.01 µM
  relative viability: 0.734
EKVX; first compound 0.03162 µM
  relative viability: 0.721
EKVX; first compound 0.1 µM
  relative viability: 0.711
EKVX; first compound 0.3162 µM
  relative viability: 0.765
EKVX; first compound 1 µM
  relative viability: 0.671
HCC-827; first compound 0.01 µM
  relative viability: 0.809
HCC-827; first compound 0.03162 µM
  relative viability: 0.761
HCC-827; first compound 0.1 µM
  relative viability: 0.836
HCC-827; first compound 0.3162 µM
  relative viability: 0.95
HCC-827; first compound 1 µM
  relative viability: 0.655
HCC-15; first compound 0.01 µM
  relative viability: 0.662
HCC-15; first compound 0.03162 µM
  relative viability: 0.673
HCC-15; first compound 0.1 µM
  relative viability: 0.717
HCC-15; first compound 0.3162 µM
  relative viability: 0.936
HCC-15; first compound 1 µM
  relative viability: 0.577
NCI-H1650; first compound 0.01 µM
  relative viability: 0.7
NCI-H1650; first compound 0.03162 µM
  relative viability: 0.702
NCI-H1650; first compound 0.1 µM
  relative viability: 0.649
NCI-H1650; first compound 0.3162 µM
  relative viability: 0.624
NCI-H1650; first compound 1 µM
  relative viability: 0.4
NCI-H2228; first compound 0.01 µM
  relative viability: 0.599
NCI-H2228; first compound 0.03162 µM
  relative viability: 0.505
NCI-H2228; first compound 0.1 µM
  relative viability: 0.582
NCI-H2228; first compound 0.3162 µM
  relative viability: 0.63
NCI-H2228; first compound 1 µM
  relative viability: 0.363
NCI-H661; first compound 0.01 µM
  relative viability: 0.784
NCI-H661; first compound 0.03162 µM
  relative viability: 0.727
NCI-H661; first compound 0.1 µM
  relative viability: 0.779
NCI-H661; first compound 0.3162 µM
  relative viability: 0.743
NCI-H661; first compound 1 µM
  relative viability: 0.48
NCI-H2342; first compound 0.01 µM
  relative viability: 0.676
NCI-H2342; first compound 0.03162 µM
  relative viability: 0.615
NCI-H2342; first compound 0.1 µM
  relative viability: 0.622
NCI-H2342; first compound 0.3162 µM
  relative viability: 0.701
NCI-H2342; first compound 1 µM
  relative viability: 0.568
LCLC-97TM1; first compound 0.01 µM
  relative viability: 0.553
LCLC-97TM1; first compound 0.03162 µM
  relative viability: 0.518
LCLC-97TM1; first compound 0.1 µM
  relative viability: 0.513
LCLC-97TM1; first compound 0.3162 µM
  relative viability: 0.619
LCLC-97TM1; first compound 1 µM
  relative viability: 0.367
LK-2; first compound 0.01 µM
  relative viability: 0.193
LK-2; first compound 0.03162 µM
  relative viability: 0.192
LK-2; first compound 0.1 µM
  relative viability: 0.163
LK-2; first compound 0.3162 µM
  relative viability: 0.165
LK-2; first compound 1 µM
  relative viability: 0.196
RERF-LC-KJ; first compound 0.01 µM
  relative viability: 0.549
RERF-LC-KJ; first compound 0.03162 µM
  relative viability: 0.678
RERF-LC-KJ; first compound 0.1 µM
  relative viability: 0.536
RERF-LC-KJ; first compound 0.3162 µM
  relative viability: 0.675
RERF-LC-KJ; first compound 1 µM
  relative viability: 0.515
NCI-H1755; first compound 0.01 µM
  relative viability: 0.625
NCI-H1755; first compound 0.03162 µM
  relative viability: 0.77
NCI-H1755; first compound 0.1 µM
  relative viability: 0.811
NCI-H1755; first compound 0.3162 µM
  relative viability: 0.799
NCI-H1755; first compound 1 µM
  relative viability: 0.707
NCI-H520; first compound 0.01 µM
  relative viability: 0.251
NCI-H520; first compound 0.03162 µM
  relative viability: 0.228
NCI-H520; first compound 0.1 µM
  relative viability: 0.259
NCI-H520; first compound 0.3162 µM
  relative viability: 0.192
NCI-H520; first compound 1 µM
  relative viability: 0.155
NCI-H2405; first compound 0.01 µM
  relative viability: 0.647
NCI-H2405; first compound 0.03162 µM
  relative viability: 0.659
NCI-H2405; first compound 0.1 µM
  relative viability: 0.585
NCI-H2405; first compound 0.3162 µM
  relative viability: 0.602
NCI-H2405; first compound 1 µM
  relative viability: 0.691
PC-14; first compound 0.01 µM
  relative viability: 0.838
PC-14; first compound 0.03162 µM
  relative viability: 1.04
PC-14; first compound 0.1 µM
  relative viability: 1.12
PC-14; first compound 0.3162 µM
  relative viability: 0.974
PC-14; first compound 1 µM
  relative viability: 0.91
